Data as given in patent publication US20050113450A1, “Antibacterial agents” (priority 2002, published 2005).
Converted amounts (≈) assume the structure as drawn.

Tested on: SA 9218
Assay: MIC by standard agar dilution method
Assay type: cell-based
Conditions: Mueller Hinton agar, 10^4 to 10^5 cells per spot, incubated overnight at 35° C., lowest concentration that inhibits visible growth
Procedure, shortened: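 MIC read after overnight 35 °C incubation as lowest drug level preventing visible growth. Inoculum of roughly 10^4–10^5 cells per spot (0.5 McFarland, 1:20 in TSB) applied to Mueller Hinton agar containing serial 2-fold compound dilutions.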

MIC | SMILES
> 128 µg/mL | CC(=O)c1ccc(CC(=O)c2ccc(S(=O)(=O)N3CCc4cc(Cl)ccc43)cc2)c(C(=O)O)c1 [PHA-708922]
32 µg/mL (≈ 74 µM) | CC(=O)c1ccc(NC(=O)c2cccc(S(=O)(=O)N3CCOCC3)c2)c(C(=O)O)c1 [PHA-708923]
32 µg/mL (≈ 72.8 µM) | O=C(Nc1cccc(C(=O)Nc2ccc(Br)cc2C(=O)O)c1)c1ccccc1 [PHA-708976]
> 128 µg/mL | O=C(Nc1ccc(C(=O)Nc2ccc(Br)cc2C(=O)O)cc1)c1ccccc1 [PHA-708977]
32 µg/mL (≈ 74.6 µM) | O=C(Nc1ccc(Br)cc1C(=O)O)c1cccc(NC(=O)c2ccco2)c1 [PHA-708978]
> 128 µg/mL | O=C(Nc1ccc(Br)cc1C(=O)O)c1ccc(NC(=O)c2ccco2)cc1 [PHA-708979]
16 µg/mL (≈ 34.8 µM) | O=C(Cc1cccs1)Nc1cccc(C(=O)Nc2ccc(Br)cc2C(=O)O)c1 [PHA-708980]
16 µg/mL (≈ 33.2 µM) | Cc1cc(C)c(C(=O)Nc2cccc(C(=O)Nc3ccc(Br)cc3C(=O)O)c2)c(C)c1 [PHA-708981]
128 µg/mL (≈ 266 µM) | Cc1cc(C)c(C(=O)Nc2ccc(C(=O)Nc3ccc(Br)cc3C(=O)O)cc2)c(C)c1 [PHA-708982]
32 µg/mL (≈ 66.2 µM) | O=C(Nc1cccc(C(=O)Nc2ccc(Br)cc2C(=O)O)c1)c1ccc2c(c1)OCO2 [PHA-708983]
32 µg/mL (≈ 64.1 µM) | COc1ccc(C(=O)Nc2cccc(C(=O)Nc3ccc(Br)cc3C(=O)O)c2)c(OC)c1 [PHA-708984]
8 µg/mL (≈ 16.5 µM) | O=C(CSc1ccccc1)Nc1cccc(C(=O)Nc2ccc(Br)cc2C(=O)O)c1 [PHA-708985]
64 µg/mL (≈ 157 µM) | COCC(=O)Nc1cccc(C(=O)Nc2ccc(Br)cc2C(=O)O)c1 [PHA-708986]
> 128 µg/mL | COCC(=O)Nc1ccc(C(=O)Nc2ccc(Br)cc2C(=O)O)cc1 [PHA-708987]
32 µg/mL (≈ 70.4 µM) | O=C(Nc1ccccc1)Nc1cccc(C(=O)Nc2ccc(Br)cc2C(=O)O)c1 [PHA-708988]
8 µg/mL (≈ 16.3 µM) | O=C(Nc1cccc(C(=O)Nc2ccc(Br)cc2C(=O)O)c1)Nc1ccc(F)cc1F [PHA-708989]
8 µg/mL (≈ 16.7 µM) | N#Cc1cccc(NC(=O)Nc2cccc(C(=O)Nc3ccc(Br)cc3C(=O)O)c2)c1 [PHA-708990]
4 µg/mL (≈ 8.18 µM) | O=C(Nc1cccc(Cl)c1)Nc1cccc(C(=O)Nc2ccc(Br)cc2C(=O)O)c1 [PHA-708991]
4 µg/mL (≈ 7.99 µM) | CSc1cccc(NC(=O)Nc2cccc(C(=O)Nc3ccc(Br)cc3C(=O)O)c2)c1 [PHA-708992]
4 µg/mL (≈ 8.06 µM) | CC(=O)c1cccc(NC(=O)Nc2cccc(C(=O)Nc3ccc(Br)cc3C(=O)O)c2)c1 [PHA-708993]
8 µg/mL (≈ 16.8 µM) | O=C(Nc1ccc(Br)cc1C(=O)O)c1ccc(NS(=O)(=O)c2ccccc2)cc1 [PHA-708994]
0.125 µg/mL (≈ 0.223 µM) | O=C(Nc1ccc(Br)cc1C(=O)O)c1cccc(NS(=O)(=O)c2ccc(OC(F)(F)F)cc2)c1 [PHA-708995]
16 µg/mL (≈ 28.6 µM) | O=C(Nc1ccc(Br)cc1C(=O)O)c1ccc(NS(=O)(=O)c2ccc(OC(F)(F)F)cc2)cc1 [PHA-708996]
8 µg/mL (≈ 14.7 µM) | O=C(Nc1ccc(Br)cc1C(=O)O)c1ccc(NS(=O)(=O)c2ccc(Cl)c(Cl)c2)cc1 [PHA-708997]
128 µg/mL (≈ 279 µM) | O=C(Cc1cccs1)Nc1ccc(C(=O)Nc2ccc(Br)cc2C(=O)O)cc1 [PHA-713386]
128 µg/mL (≈ 270 µM) | O=C(Nc1ccc(Br)cc1C(=O)O)c1cccc(NC(=O)c2ccc([N+](=O)[O-])o2)c1 [PHA-713387]

MIC | SMILES
> 128 µg/mL | O=C(Nc1cccc(C(=O)Nc2ccc(Br)cc2C(=O)O)c1)c1ccc(Cl)nc1 [PHA-713389]
> 128 µg/mL | O=C(Nc1ccc(C(=O)Nc2ccc(Br)cc2C(=O)O)cc1)c1ccc(Cl)nc1 [PHA-713390]
> 128 µg/mL | O=C(Nc1ccc(Br)cc1C(=O)O)c1cccc(NC(=O)c2sc3ccccc3c2Cl)c1 [PHA-713391]
> 128 µg/mL | O=C(Nc1ccc(Br)cc1C(=O)O)c1ccc(NC(=O)c2sc3ccccc3c2Cl)cc1 [PHA-713392]
> 128 µg/mL | O=C(Nc1ccccc1)Nc1ccc(C(=O)Nc2ccc(Br)cc2C(=O)O)cc1 [PHA-713393]
128 µg/mL (≈ 261 µM) | O=C(Nc1ccc(C(=O)Nc2ccc(Br)cc2C(=O)O)cc1)Nc1ccc(F)cc1F [PHA-713394]
> 128 µg/mL | N#Cc1cccc(NC(=O)Nc2ccc(C(=O)Nc3ccc(Br)cc3C(=O)O)cc2)c1 [PHA-713395]
8 µg/mL (≈ 14.8 µM) | O=C(Nc1ccc(Br)cc1C(=O)O)c1cccc(NC(=S)Nc2cc(Cl)cc(Cl)c2)c1 [PHA-713396]
> 128 µg/mL | O=C(Nc1ccc(C(=O)Nc2ccc(Br)cc2C(=O)O)cc1)Nc1cc(Cl)cc(Cl)c1 [PHA-713397]
4 µg/mL (≈ 7.71 µM) | COc1ccc(Cl)cc1NC(=O)Nc1cccc(C(=O)Nc2ccc(Br)cc2C(=O)O)c1 [PHA-713398]
16 µg/mL (≈ 29.3 µM) | O=C(Nc1ccc(Oc2ccccc2)cc1)Nc1cccc(C(=O)Nc2ccc(Br)cc2C(=O)O)c1 [PHA-713399]
16 µg/mL (≈ 29.3 µM) | O=C(Nc1ccc(Oc2ccccc2)cc1)Nc1ccc(C(=O)Nc2ccc(Br)cc2C(=O)O)cc1 [PHA-713400]
32 µg/mL (≈ 64.5 µM) | CC(=O)c1ccc(NC(=O)Nc2cccc(C(=O)Nc3ccc(Br)cc3C(=O)O)c2)cc1 [PHA-713401]
64 µg/mL (≈ 124 µM) | O=C(Nc1ccc(Br)cc1C(=O)O)c1ccc(NC(=S)Nc2ccc([N+](=O)[O-])cc2)cc1 [PHA-713403]
128 µg/mL (≈ 238 µM) | O=C(Nc1ccc(Br)cc1C(=O)O)c1cccc(NC(=S)Nc2ccccc2C(F)(F)F)c1 [PHA-713405]
64 µg/mL (≈ 114 µM) | COc1cc(NC(=S)Nc2cccc(C(=O)Nc3ccc(Br)cc3C(=O)O)c2)cc(OC)c1OC [PHA-713406]
32 µg/mL (≈ 62 µM) | CSc1cccc(NC(=S)Nc2cccc(C(=O)Nc3ccc(Br)cc3C(=O)O)c2)c1 [PHA-713407]
64 µg/mL (≈ 125 µM) | CC(=O)c1cccc(NC(=S)Nc2cccc(C(=O)Nc3ccc(Br)cc3C(=O)O)c2)c1 [PHA-713408]
1 µg/mL (≈ 2.1 µM) | O=C(Nc1ccc(Br)cc1C(=O)O)c1cccc(NS(=O)(=O)c2ccccc2)c1 [PHA-713409]
1 µg/mL (≈ 1.84 µM) | O=C(Nc1ccc(Br)cc1C(=O)O)c1cccc(NS(=O)(=O)c2ccc(Cl)c(Cl)c2)c1 [PHA-713410]
32 µg/mL (≈ 65.5 µM) | Cc1ccc(S(=O)(=O)Cc2ccc(C(=O)Nc3ccc(Br)cc3C(=O)O)cc2)cc1 [PHA-713411]
4 µg/mL (≈ 7.44 µM) | Cc1c(C(=O)Nc2ccc(Br)cc2C(=O)O)cccc1S(=O)(=O)N(C)c1ccc(Cl)cc1 [PHA-717196]
2 µg/mL (≈ 4.01 µM) | CC(=O)c1ccc(NC(=O)c2cccc(S(=O)(=O)N3CCc4cc(Cl)ccc43)c2)c(C(=O)O)c1 [PHA-719201]
0.25 µg/mL (≈ 0.504 µM) | Cc1c(C(=O)Nc2ccc(C#N)cc2C(=O)O)cccc1S(=O)(=O)N1CCc2cc(Cl)ccc21 [PHA-728844]
16 µg/mL (≈ 28.9 µM) | COc1c(C(=O)Nc2ccc(Br)cc2C(=O)O)cccc1S(=O)(=O)N(C)c1ccc(Cl)cc1 [PHA-735753]
64 µg/mL (≈ 111 µM) | CCCCCC(=O)NCc1ccc(C(=O)Nc2ccc(C#N)cc2C(=O)O)cc1S(=O)(=O)N1CCc2ccccc21 [PHA-738531]

MIC | SMILES
32 µg/mL (≈ 49.6 µM) | CCCCCCCCCCC(=O)NCc1ccc(C(=O)Nc2ccc(C#N)cc2C(=O)O)cc1S(=O)(=O)N1CCc2ccccc21 [PHA-738532]
128 µg/mL (≈ 247 µM) | CC(=O)NCc1ccc(C(=O)Nc2ccc(C#N)cc2C(=O)O)cc1S(=O)(=O)N1CCc2ccccc21 [PHA-740499]
8 µg/mL (≈ 18.5 µM) | N#Cc1ccc(NC(=O)c2ccc(N=[N+]=[N-])c(I)c2)c(C(=O)O)c1 [PHA-748361]
4 µg/mL (≈ 7.7 µM) | O=C(O)c1ccc(NS(=O)(=O)c2ccc(C(=O)Nc3ccc(Br)cc3C(=O)O)cc2)cc1 [PNU-276817]
16 µg/mL (≈ 30.5 µM) | CN(c1ccc(Cl)cc1)S(=O)(=O)c1ccc(C(=O)Nc2ccc(Br)cc2C(=O)O)cc1 [PNU-276988]
1 µg/mL (≈ 2.21 µM) | CCCN(CCC)Sc1ccc(C(=O)Nc2ccc(Cl)cc2C(=O)O)cc1[N+](=O)[O-] [PNU-277231]
> 128 µg/mL | O=C(Nc1ccc(I)cc1C(=O)O)c1ccc(F)cc1 [PNU-281164]
32 µg/mL (≈ 68.6 µM) | O=C(Nc1ccc(Br)cc1C(=O)O)c1ccc(S(=O)(=O)Nc2nc[nH]n2)cc1 [PNU-282859]
1 µg/mL (≈ 1.91 µM) | CN(c1ccc(Cl)cc1)S(=O)(=O)c1cccc(C(=O)Nc2ccc(Br)cc2C(=O)O)c1 [PNU-283076]
0.125 µg/mL (≈ 0.25 µM) | O=C(Nc1ccc(Br)cc1C(=O)O)c1ccc(S(=O)(=O)n2ccc3ccccc32)cc1 [PNU-283318]
4 µg/mL (≈ 7.99 µM) | O=C(Nc1ccc(Br)cc1C(=O)O)c1ccc(S(=O)(=O)n2cnc3ccccc32)cc1 [PNU-283371]
1 µg/mL (≈ 1.99 µM) | O=C(Nc1ccc(Cl)cc1C(=O)O)c1ccc(S(=O)(=O)N2CCc3ccccc32)c([N+](=O)[O-])c1 [PNU-283599]
32 µg/mL | CCCC(CCC)S(=O)(=O)c1ccc(C(=O)Nc2ccc(Cl)cc2C(=O)O)cc1NO.Cl [PNU-283601A]
16 µg/mL | CCCN(CCC)S(=O)(=O)c1ccc(C(=O)Nc2ccc(Cl)cc2C(=O)O)cc1N.Cl [PNU-283603A]
4 µg/mL (≈ 9.03 µM) | O=C(Nc1ccc(Cl)cc1C(=O)O)c1ccc(SCc2ccccc2)c([N+](=O)[O-])c1 [PNU-283604]
0.25 µg/mL (≈ 0.467 µM) | O=C(Nc1ccc(Br)cc1C(=O)O)c1cccc(S(=O)(=O)N2CCc3cc(Cl)ccc32)c1 [PNU-288969]
8 µg/mL (≈ 14.4 µM) | COc1ccc(S(=O)(=O)N(C)c2ccc(Cl)cc2)cc1C(=O)Nc1ccc(Br)cc1C(=O)O [PNU-289815]
64 µg/mL (≈ 119 µM) | Cc1ccc(S(=O)(=O)N(C)c2ccc(Cl)cc2)cc1C(=O)Nc1ccc(Br)cc1C(=O)O [PNU-290821]
> 128 µg/mL | O=C(Nc1ccc(Br)cc1C(=O)O)c1ccc(NC(=O)N2CCc3ccccc32)cc1 [PNU-290877, 5-Bromo-2-({4-[(2,3-dihydro-1H-indol-1-ylcarbonyl)amino]benzoyl}amino)benzoic acid]
4 µg/mL (≈ 8.48 µM) | Nc1cc(C(=O)Nc2ccc(Cl)cc2C(=O)O)ccc1S(=O)(=O)N1CCc2ccccc21 [PNU-290881A]
1 µg/mL (≈ 2.1 µM) | O=C(Nc1ccc(Cl)cc1C(=O)O)c1ccc(SCc2ccccc2)c(Br)c1 [PNU-290882]
1 µg/mL (≈ 1.87 µM) | O=C(Nc1ccc(Br)cc1C(=O)O)c1ccc(S(=O)(=O)n2ccc3cc(Cl)ccc32)cc1 [PNU-290905]
1 µg/mL (≈ 1.87 µM) | O=C(Nc1ccc(Br)cc1C(=O)O)c1ccc(S(=O)(=O)n2ccc3ccc(Cl)cc32)cc1 [PNU-290906]
1 µg/mL (≈ 1.81 µM) | O=C(Nc1ccc(Br)cc1C(=O)O)c1ccc(S(=O)(=O)n2ccc3cc(F)c(Cl)cc32)cc1 [PNU-291010]
0.25 µg/mL (≈ 0.483 µM) | O=C(Nc1ccc(Br)cc1C(=O)O)c1ccc(S(=O)(=O)n2ccc3ccc(F)cc32)cc1 [PNU-291011]
